Measured values: patent US20220378907A1, “METHODS FOR TREATING DISEASES” (CHILDREN'S HOSPITAL MEDICAL CENTER, priority 2019, published 2022)

B1: recombinant TNF: rTNFα (Peprotech; 315-01Am, 20 ng/mL) (protein)
chain: LRSSSQNSSDKPVAHVVANHQVEEQLEWLSQRANALLANGMDLKDNQLVVPADGLYLVYSQVLFKGQGCPDYVLLTHTVSRFAISYQEKVNLLSAVKSPCPKDTPEGAELKPWYEPIYLGGVFQLEKGDQLSAEVNLPKYLDFAESGQVYFGVIAL

Assays:
Assay type in all cases: cell-based, mouse
pro-IL-1β in BMDCs = experiment: Co-culture of BMDCs and effector CD4+ T cells, pro-IL-1β by immunoblot or flow cytometry; settings: WT BMDCs + WT TH0 cells, CD3 Ab, IETD 10 μM, 18 h
Protocol: 1 million DCs were cultured with 4 million T cells in 12 well plate. DC-T cell interaction was triggered by adding either αCD3ε (αCD3, 200 ng mL^−1) or OVA323-339 as described in the legends. In experiments measuring secreted IL-1β, IL-1R antagonist (50 ng mL^−1) was added 1 hr prior to DC stimulation to block IL-1β consumption. Co-cultures were also pretreated with neutralizing antibodies and inhibitor wherever described. Co-culture experiments were performed in complete RPMI supplemented with 10% FCS. For Western blot analysis of the culture supernatant cells were cultured in 1% FCS containing complete RPMI.
Cells were lysed in 1× RIPA Buffer and protein was quantified using Pierce™ BCA Protein Assay Kit. Cell lysates where boiled in 1× Laemmli buffer at 95° C. for 10 mins. Cell lysates were separated by SDS-PAGE and transferred onto PVDF membranes. Blots were incubated with anti-IL1β [1:1000] (R&D AF-401-SP), anti-caspase8 [1:1000] […] Western blot was develop using SuperSignal™ West Pico PLUS Chemiluminescent Substrate (Thermo Fisher) and ECL signal was recorded on X-Ray Films using a developer (Kodak).
Cells were stained with relevant antibodies for 30 min on ice and washed. […] The stained cells were analyzed with BDLSRII or Novocyte (ACEA biosciences). For cytokine receptor staining, control refers to fluorescence minus one control. Data were analyzed with FlowJo 10 Software.

[1] = test system: IL-1β production by BMDCs co-cultured with TH0 cells; experiment: Co-culture of BMDCs and effector CD4+ T cells (CD3 Ab), secreted IL-1β by ELISA or immunoblot; settings: WT BMDCs + WT TH0 cells, IETD 10 μM, 18 h
Protocol: Cell culture treated plates were coated with αCD3 (5 μg mL^−1) and αCD28 (5 μg mL^−1) for 3-4 h at 37° C. CD4^+CD62L^hi naïve CD4^+ T cells were isolated from splenocytes using a Mojosort naïve CD4 T cell isolation kit according to manufacturer's protocol. Purified naïve T cells were plated in antibody-coated plates with appropriate polarizing conditions for 5 days. T cell were cultured in complete RPMI supplemented with 10% FCS. Cytokine cocktails for in vitro polarization: Thl — IL-12 (10 ng mL^−1, peprotech), IL-2 (50 U mL^−1, peprotech), αIL-4 (10 μg mL^−1, Biolegend); Th17-IL-6 (20 ng mL^−1, peprotech), hTGFβ (5 ng mL^−1, peprotech), αIL-4 (10 μg mL^−1, Biolegend), αIFNγ (10 μg mL^−1, Biolegend), IL-23 (20 ng mL^−1, Biolegend) and IL-1β (20 ng mL^−1, peprotech), Th2− IL-4 (4 ng mL^−1, peprotech), IL-2 (50 U mL^−1, Biolegend), and αIFNγ (10 μg mL^−1, Biolegend), Th0− IL-2 (50 U mL^−1). For co-culture experiments T cells were rested in 10% RPMI supplemented with IL-2 (10 U mL^−1) for 36 hrs before co-culture.
Mouse progenitors were isolated from bone marrow (femurs and tibias). […]
Cells were lysed in 1× RIPA Buffer and protein was quantified using Pierce™ BCA Protein Assay Kit. […] Western blot was develop using SuperSignal™ West Pico PLUS Chemiluminescent Substrate (Thermo Fisher) and ECL signal was recorded on X-Ray Films using a developer (Kodak).

WT BMDCs = experiment: Stimulation of WT BMDCs with recombinant TNF, intracellular pro-IL-1β by flow cytometry; settings: recombinant TNFα 20 ng/mL, 6 h
Protocol: Mouse progenitors were isolated from bone marrow (femurs and tibias). Following RBC lysis, cells were plated at 0.75×10^6 mL^−1 in BMDC media (5% FCS containing complete RPMI+1% rGMCSF (Biolegend, 100 ng mL^−1). Media was replaced on day 2 and day 4 and cells were harvested for experiments on day 5 by gently flushing each well. For sorting of BMDC subpopulations, total BMDC cells were stained with fluorescent antibodies and FACS sorted as shown (FIG. 5g) For retroviral transduction, following RBC lysis cells were plated at 10×10^6 mL^−1 in 2 mL of retroviral supernatant containing […] polybrene. Cells were spinfected at 2500 rpm, 32° C., for 90 minutes, then 3 mL of BMDC media was added to each well and cells were incubated overnight. The next morning, ˜70% of the media was removed from the wells and spinfection was repeated with fresh retroviral supernatant. On day 5 cells were harvested for experiments.
Cells were stained with relevant antibodies for 30 min on ice and washed. For intracellular staining, Foxp3 staining buffer set (eBioscience; 00-5523-00) was used according to manufacturer's protocol. The stained cells were analyzed with BDLSRII or Novocyte (ACEA biosciences). For cytokine receptor staining, control refers to fluorescence minus one control. Data were analyzed with FlowJo 10 Software.

Molecule	production of pro-IL-1β in BMDCs (immunoblot, FIG. 4d) (pro-IL-1β in BMDCs)	mature IL-1β (p17) in the supernatant (immunoblot, FIG. 4d) [1]	synthesis of pro-IL-1β in wild-type BMDCs (FIG. 2k) (WT BMDCs)
IETD	did not affect	loss of mature IL-1β	–
B1	–	–	drove the synthesis
